Experimental data: ChEMBL document CHEMBL2380212, “Synthesis, single crystal and antitumor activities of benzimidazole-quinazoline hybrids” (Bioorg Med Chem Lett, 2013)

Assays:
[1] = test system: COLO 205; assay: Cytotoxicity against human COLO205 cells at 10 uM after 48 hrs by SRB assay; assay type: functional; details: COLO 205, 48 h, read-out: GI
[2] = test system: IGROV-1; assay: Cytotoxicity against human IGROV1 cells at 10 uM after 48 hrs by SRB assay; assay type: functional; details: IGROV-1, 48 h, read-out: GI
[3] = test system: NCI-H23; assay: Cytotoxicity against human NCI-H23 cells at 10 uM after 48 hrs by SRB assay; assay type: functional; details: NCI-H23, 48 h, read-out: GI
[4] = test system: NCI-H226; assay: Cytotoxicity against human NCI-H226 cells at 10 uM after 48 hrs by SRB assay; assay type: functional; details: NCI-H226, 48 h, read-out: GI
[5] = test system: OVCAR-5; assay: Cytotoxicity against human OVCAR5 cells at 10 uM after 48 hrs by SRB assay; assay type: functional; details: OVCAR-5, 48 h, read-out: GI
[6] = test system: SF-295; assay: Cytotoxicity against human SF295 cells at 10 uM after 48 hrs by SRB assay; assay type: functional; details: SF-295, 48 h, read-out: GI
[7] = test system: UACC-257; assay: Cytotoxicity against human UACC257 cells at 10 uM after 48 hrs by SRB assay; assay type: functional; details: UACC-257, 48 h, read-out: GI
[8] = test system: OVCAR-8; assay: Cytotoxicity against human OVCAR8 cells at 10 uM after 48 hrs by SRB assay; assay type: functional; details: OVCAR-8, 48 h, read-out: GI
[9] = test system: NCI/ADR-RES; assay: Cytotoxicity against human NCI/ADR-RES cells at 10 uM after 48 hrs by SRB assay; assay type: functional; details: read-out: GI
[10] = test system: UACC-62; assay: Cytotoxicity against human UACC62 cells at 10 uM after 48 hrs by SRB assay; assay type: functional; details: UACC-62, 48 h, read-out: GI
[11] = test system: HT-29; assay: Cytotoxicity against human HT-29 cells at 10 uM after 48 hrs by SRB assay; assay type: functional; details: HT-29, 48 h, read-out: GI
[12] = test system: NCI-H460; assay: Cytotoxicity against human NCI-H460 cells at 10 uM after 48 hrs by SRB assay; assay type: functional; details: NCI-H460, 48 h, read-out: GI
[13] = test system: Hs-578T; assay: Cytotoxicity against human Hs578T cells at 10 uM after 48 hrs by SRB assay; assay type: functional; details: read-out: GI
[14] = test system: UO-31; assay: Cytotoxicity against human UO31 cells at 10 uM after 48 hrs by SRB assay; assay type: functional; details: UO-31, 48 h, read-out: GI
[15] = test system: 786-0; assay: Cytotoxicity against human 786-0 cells at 10 uM after 48 hrs by SRB assay; assay type: functional; details: 786-0, 48 h, read-out: GI
[16] = test system: MDA-MB-231; assay: Cytotoxicity against human MDA-MB-231 cells at 10 uM after 48 hrs by SRB assay; assay type: functional; details: MDA-MB-231, 48 h, read-out: GI
[17] = test system: A549; assay: Cytotoxicity against human A549 cells at 10 uM after 48 hrs by SRB assay; assay type: functional; details: A549, 48 h, read-out: GI
[18] = test system: HCT-116; assay: Cytotoxicity against human HCT116 cells at 10 uM after 48 hrs by SRB assay; assay type: functional; details: HCT-116, 48 h, read-out: GI
[19] = test system: T47D; assay: Cytotoxicity against human T47D cells at 10 uM after 48 hrs by SRB assay; assay type: functional; details: read-out: GI
[20] = test system: LOX IMVI; assay: Cytotoxicity against human LOXIMVI cells at 10 uM after 48 hrs by SRB assay; assay type: functional; details: read-out: GI
[21] = test system: RPMI-8226; assay: Cytotoxicity against human RPMI8226 cells at 10 uM after 48 hrs by SRB assay; assay type: functional; details: RPMI-8226, 48 h, read-out: GI
[22] = test system: MDA-MB-435; assay: Cytotoxicity against human MDA-MB-435 cells at 10 uM after 48 hrs by SRB assay; assay type: functional; details: MDA-MB-435, 48 h, read-out: GI
[23] = test system: PC-3; assay: Cytotoxicity against human PC3 cells at 10 uM after 48 hrs by SRB assay; assay type: functional; details: PC-3, 48 h, read-out: GI
[24] = test system: MOLT-4; assay: Cytotoxicity against human MOLT4 cells at 10 uM after 48 hrs by SRB assay; assay type: functional; details: MOLT-4, 48 h, read-out: GI
[25] = test system: HOP-92; assay: Cytotoxicity against human HOP92 cells at 10 uM after 48 hrs by SRB assay; assay type: functional; details: HOP-92, 48 h, read-out: GI
[26] = test system: SNB-19; assay: Cytotoxicity against human SNB19 cells at 10 uM after 48 hrs by SRB assay; assay type: functional; details: SNB-19, 48 h, read-out: GI
[27] = test system: TK-10; assay: Cytotoxicity against human TK10 cells at 10 uM after 48 hrs by SRB assay; assay type: functional; details: TK-10, 48 h, read-out: GI
[28] = test system: SW-620; assay: Cytotoxicity against human SW620 cells at 10 uM after 48 hrs by SRB assay; assay type: functional; details: SW-620, 48 h, read-out: GI
[29] = test system: A498; assay: Cytotoxicity against human A498 cells at 10 uM after 48 hrs by SRB assay; assay type: functional; details: A498, 48 h, read-out: GI
[30] = test system: BT-549; assay: Cytotoxicity against human BT549 cells at 10 uM after 48 hrs by SRB assay; assay type: functional; details: BT-549, 48 h, read-out: GI
[31] = test system: SK-MEL-2; assay: Cytotoxicity against human SK-MEL-2 cells at 10 uM after 48 hrs by SRB assay; assay type: functional; details: SK-MEL-2, 48 h, read-out: GI
[32] = test system: KM12; assay: Cytotoxicity against human KM12 cells at 10 uM after 48 hrs by SRB assay; assay type: functional; details: KM12, 48 h, read-out: GI
[33] = test system: K562; assay: Cytotoxicity against human K562 cells at 10 uM after 48 hrs by SRB assay; assay type: functional; details: K562, 48 h, read-out: GI
[34] = test system: NCI-H522; assay: Cytotoxicity against human NCI-H522 cells at 10 uM after 48 hrs by SRB assay; assay type: functional; details: NCI-H522, 48 h, read-out: GI
[35] = test system: OVCAR-4; assay: Cytotoxicity against human OVCAR4 cells at 10 uM after 48 hrs by SRB assay; assay type: functional; details: OVCAR-4, 48 h, read-out: GI
[36] = test system: MCF7; assay: Cytotoxicity against human MCF7 cells at 10 uM after 48 hrs by SRB assay; assay type: functional; details: MCF7, 48 h, read-out: GI
[37] = test system: SK-MEL-5; assay: Cytotoxicity against human SK-MEL-5 cells at 10 uM after 48 hrs by SRB assay; assay type: functional; details: SK-MEL-5, 48 h, read-out: GI
[38] = test system: HCT-15; assay: Cytotoxicity against human HCT15 cells at 10 uM after 48 hrs by SRB assay; assay type: functional; details: HCT-15, 48 h, read-out: GI
[39] = n-Octanol-phosphate buffer partition coefficient, log P of the compound at pH 7.4 by shake flask method; assay type: physicochemical
[40] = test system: SK-MEL-28; assay: Cytotoxicity against human SK-MEL-28 cells at 10 uM after 48 hrs by SRB assay; assay type: functional; details: SK-MEL-28, 48 h, read-out: GI

C=CCn1c(C)nc2ccc(Nc3nc(N4CCN(C)CC4)nc4ccccc34)cc21
inhibition of growth at 10 µM [1]: 23.6%
inhibition of growth at 10 µM [2]: < 10%
inhibition of growth at 10 µM [3]: 19.2%
inhibition of growth at 10 µM [4]: 13.6%
inhibition of growth at 10 µM [5]: 16.5%
inhibition of growth at 10 µM [6]: < 10%
inhibition of growth at 10 µM [7]: < 10%
inhibition of growth at 10 µM [8]: 23.4%
inhibition of growth at 10 µM [9]: < 10%
inhibition of growth at 10 µM [10]: < 10%
inhibition of growth at 10 µM [11]: 42.6%
inhibition of growth at 10 µM [12]: < 10%
inhibition of growth at 10 µM [13]: 23.3%
inhibition of growth at 10 µM [14]: 34.2%
inhibition of growth at 10 µM [15]: < 10%
inhibition of growth at 10 µM [16]: 22.8%
inhibition of growth at 10 µM [17]: < 10%
inhibition of growth at 10 µM [18]: 33%
inhibition of growth at 10 µM [19]: 20.6%
inhibition of growth at 10 µM [20]: 18%
inhibition of growth at 10 µM [21]: 28.5%
inhibition of growth at 10 µM [22]: < 10%
inhibition of growth at 10 µM [23]: 25.9%
inhibition of growth at 10 µM [24]: 43.1%
inhibition of growth at 10 µM [25]: 42.4%
inhibition of growth at 10 µM [26]: < 10%
inhibition of growth at 10 µM [27]: < 10%
inhibition of growth at 10 µM [28]: < 10%
inhibition of growth at 10 µM [29]: < 10%
inhibition of growth at 10 µM [30]: 20.7%
inhibition of growth at 10 µM [31]: < 10%
inhibition of growth at 10 µM [32]: 20.5%
inhibition of growth at 10 µM [33]: 37.8%
inhibition of growth at 10 µM [34]: < 10%
inhibition of growth at 10 µM [35]: 20.7%
inhibition of growth at 10 µM [36]: 14.4%
inhibition of growth at 10 µM [37]: 18.3%
inhibition of growth at 10 µM [38]: 10.1%
logD [39]: 1.03
inhibition of growth at 10 µM [40]: < 10%
